The source of these data is patent publication US20260306492A1 (BRISTOL-MYERS SQUIBB COMPANY, priority 2023, published 2026).

For data set [1] the following is noted: cited from earlier work; for VTE prevention versus enoxaparin 40 mg once daily: orthopedic surgery, historical Phase 3; for bleeding: Phase 2 orthopedic surgery studies and with antiplatelets after an ACS.
The nature of data set [2]: Thorough QT (TQT) study in healthy adults. Format: in vivo, human. To be noted: single 400 mg dose. Here is the method: Pharmacokinetic analysis was performed on the plasma concentrations of each participant.
Data set [3] relates to participants undergoing primary unilateral elective TKR surgery. The experiment in a line: Total venous thromboembolism (VTE) in TKR patients, AXIOMATIC-TKR. Format: in vivo, human. To be noted: enoxaparin 40 mg once daily.
In data set [4] the test system is intrinsic and final common pathways of the coagulation cascade (aPTT). Briefly: Activated partial thromboplastin time (aPTT), AXIOMATIC-TKR Phase II. Format: in vivo, human. To be noted: enoxaparin 40 mg QD sc. An excerpt:
As used herein, the term “activated partial thromboplastin time (aPTT)” refers to a measure of the intrinsic and final common pathways of the coagulation cascade. It represents the time, in seconds, for plasma to clot after addition of phospholipid, an intrinsic pathway activator, and calcium. […] The term ‘partial’ means phospholipid is present but no tissue factor. The normal and reference ranges vary depending on reagent and instrument combinations, particularly with the phospholipid composition.
In some embodiments, aPTT is measured as follows: Plasma samples are incubated with Actin FS aPTT assay reagent containing a standard amount of phospholipid and contact activator (ellagic acid) which activates the intrinsic coagulation pathway. After incubating for 3 minutes, calcium chloride is added to initiate coagulation and formation of a fibrin clot is measured optically. The time to clot formation (measured in seconds) is reported as the Activated Partial Thromboplastin Time (aPTT).
(§1) Assessment of the dose-response for the occurrence of any bleeding was a secondary objective.
(§2) PD analyses were performed on the PD analysis set, defined as subjects who had at least one valid blood sample drawn for PD. Descriptive statistics (N, mean, SD, median, range, CV (%) and IQ range) were used to summarize PD response at each nominal sampling time point by treatment group. Changes from baseline were summarized when applicable. PD response outside of limit of quantitation were not to be imputed and were to be noted in the summary statistics.

A further data set has as its system thrombin generation. Briefly: Thrombin Generation Assay (TGA), AXIOMATIC-TKR Phase II. To be noted: enoxaparin 40 mg QD sc. Format: in vivo, human.
Source text: As used herein, “Thrombin Generation Assay (TGA)” is a global coagulation assay that evaluates the thrombogenic capacity of a plasma sample and has been proposed that it may better reflect prothrombotic or hemorrhagic states than conventional clotting assays. In the traditional TGA, coagulation of citrated plasma is initiated through the extrinsic pathway by adding tissue factor, phospholipids, and calcium. For this study, in the in-vitro thrombin generation assay (TGA) using human platelet-rich plasma, and a kaolin slurry was used instead to initiate coagulation through the contact activation pathway. Thrombin generation is continuously monitored through the product released by cleavage of a thrombin-specific fluorogenic substrate. The generated thrombogram is used to determine several relevant parameters, including endogenous thrombin potential, defined as the area under the thrombin concentration vs. time curve. […]
as §2

The next data set concerns the target T1, Factor XI (Homo sapiens, UniProt P03951).
T1 construct: aPTT one-stage clotting with FXI-deficient plasma
Briefly: FXI clotting activity (FXI:c), AXIOMATIC-TKR Phase II. Type of data set: in vivo. To be noted: enoxaparin 40 mg QD sc. Here is the method:
As used herein, “Factor XI Clotting Activity” is determined utilizing an aPTT-based 1-stage clotting time assay. Serial dilutions of normal pooled plasma are mixed with FXI-depleted plasma and the clotting times are measured according to standard aPTT protocol, to establish a reference range. Subject test plasma is treated in the same way and compared with the reference plasma.
In some embodiments, the Factor XI Clotting Activity is measured as follows: Factor XI (FXI) activity is measured using a modification of the activated partial thromboplastin time (aPTT) using Actin FS (Siemens Healthcare) on the Siemens BCS®XP analyzer. […] The reference standard, at approximately 100%, is diluted by the BCS®XP analyzer in saline to generate pre-selected calibration levels of FXI. The calibration curve is plotted with FXI activity in percent (%) on the x-axis and clotting time in seconds on the y-axis. A log/lin regression curve fit is used. […] APTT reagent (Actin FS) is added and the mixture is incubated. Following incubation, calcium chloride is added to the mixture and the time to clot formation (measured optically) is compared to the time on the calibration curve. Samples are tested at the base dilution (1:10) prepared by the BCS®XP in saline.
as §1, §2

Where two headings read alike, the source gives them in different places.

T1 sequence (P03951 19-625): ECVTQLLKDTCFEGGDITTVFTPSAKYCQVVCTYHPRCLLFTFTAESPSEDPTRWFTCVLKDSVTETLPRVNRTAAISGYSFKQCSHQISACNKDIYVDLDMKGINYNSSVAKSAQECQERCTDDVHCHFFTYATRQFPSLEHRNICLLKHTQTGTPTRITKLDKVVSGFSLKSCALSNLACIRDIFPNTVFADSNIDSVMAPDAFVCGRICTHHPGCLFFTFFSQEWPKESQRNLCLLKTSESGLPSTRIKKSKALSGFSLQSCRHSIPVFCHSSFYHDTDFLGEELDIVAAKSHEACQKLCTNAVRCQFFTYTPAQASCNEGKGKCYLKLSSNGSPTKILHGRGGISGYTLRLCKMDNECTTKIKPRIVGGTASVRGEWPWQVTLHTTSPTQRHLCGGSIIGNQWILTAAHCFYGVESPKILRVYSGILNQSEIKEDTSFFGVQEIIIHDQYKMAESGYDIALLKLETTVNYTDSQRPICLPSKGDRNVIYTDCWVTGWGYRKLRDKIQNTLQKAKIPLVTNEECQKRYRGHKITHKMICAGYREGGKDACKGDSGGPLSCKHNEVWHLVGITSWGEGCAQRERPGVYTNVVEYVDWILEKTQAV

Take `COc1ccc(-n2nc(C(N)=O)c3c2C(=O)N(c2ccc(N4CCCCC4=O)cc2)CC3)cc1` [apixaban]: in data set [1] (2.5 mg twice daily), the “VTE prevention versus enoxaparin 40 mg once daily” value is “superior to enoxaparin 40 mg once daily”. The bleeding entry in data set [1] was “dose-related bleeding”.
In the case of `COc1c(N2C[C@@H]3CCCN[C@@H]3C2)c(F)cc2c(=O)c(C(=O)O)cn(C3CC3)c12` [moxifloxacin], in data set [2], the “assay sensitivity (positive control)” value was “demonstrated”. Further, the “participants with treatment-emergent change from baseline of QTcB>60 ms” value in data set [2] (one participant) is given as 1.7%.
Regarding `O=C(NC[C@H]1CN(c2ccc(N3CCOCC3=O)cc2)C(=O)O1)c1ccc(Cl)s1` [rivaroxaban], the “VTE prevention versus enoxaparin 40 mg once daily” value in data set [1] (10 mg once daily) is on record as “superior to enoxaparin 40 mg once daily”. Further, the bleeding result in data set [1] is reported as “dose-related bleeding”.
Consider enoxaparin, for which, in data set [3], the “total VTE rate” value was 21.4%. Moreover, the “aPTT, measured value, median” value in data set [4] (Day 1 2 h) amounted to 27.5 s; in data set [4] (Day 1 4 h) it was 27.75 s; in data set [4] (Day 2 Predose) it was 27.4 s; in data set [4] (Day 4 4 h), 26.1 s; in data set [4] (Day 4 Predose) it was 25.8 s; in data set [4] (Day 10-14) it was 25.9 s. For the same compound, the “ETP Lag Time, measured value, median” value in the data set on thrombin generation (Day 1 2 h) is reported as 7.02 min; in the data set with thrombin generation (Day 1 4 h), 6.83 min; in the data set on thrombin generation (Day 2 Predose), 5.7 min; in the data set on thrombin generation (Day 4 4 h), 7.44 min; with thrombin generation (Day 4 Predose), 5.96 min; in the data set with thrombin generation (Day 10-14), 8.11 min. Moreover, the “ETP Peak Height, measured value, mean” value in the data set on thrombin generation (Day 1 2 h) was found to be 171.15 nmol/L; in the data set with thrombin generation (Day 1 4 h) it was 183.54 nmol/L; in the data set with thrombin generation (Day 2 Predose), 232.14 nmol/L; with thrombin generation (Day 4 4 h) it was 210.21 nmol/L; in the data set on thrombin generation (Day 4 Predose), 250.47 nmol/L; in the data set on thrombin generation (Day 10-14) it was 213.56 nmol/L. Further, the “ETP Lag Time, measured value, mean” value with thrombin generation (Day 1 4 h) stood at 8.39 min; with thrombin generation (Day 2 Predose) it was 6.98 min; in the data set on thrombin generation (Day 4 4 h), 8.16 min; in the data set with thrombin generation (Day 4 Predose), 7.44 min; in the data set with thrombin generation (Day 10-14), 11.18 min. Besides, the “ETP Peak Height, measured value, median” value is listed as 160.49 nmol/L in the data set with thrombin generation (Day 1 4 h); 214.37 nmol/L in the data set with thrombin generation (Day 2 Predose); 196.02 nmol/L in the data set with thrombin generation (Day 4 4 h); 227.87 nmol/L with thrombin generation (Day 4 Predose); 201.82 nmol/L in the data set with thrombin generation (Day 10-14). For the same compound, the “FXI:c, % change from baseline, mean” value is −7.24% at Factor XI (Day 1 4 h) and 36.64% at Factor XI (Day 10-14). Besides, the “FXI:c, % change from baseline, median” value on Factor XI (Day 1 4 h) is recorded as −7.24%; at Factor XI (Day 10-14), 37.21%. The “FXI:c, measured value, mean” value is 1.06 on Factor XI (Day 1 4 h) and 1.36 at Factor XI (Day 10-14). The “FXI:c, measured value, median” value on Factor XI (Day 1 4 h) came to 1.07; on Factor XI (Day 10-14), 1.39.
